SMILES strings stand for the structures. Where a name gives a salt, the structure may show the parent alone. Read-outs that look alike come from different tables or passages of the source.

For data set [1] the following is noted: pH 3.
Description: The solubility of droloxifene citrate was determined in an aqueous phosphate buffer at pH 3, without and with various levels of cyclodextrins. Solubility testing of droloxifene citrate in solutions of the cydodextrins, SBECD and HPBCD, was conducted using an equilibrium solubility method. The following protocol was employed for the solubility determination.
Separate 0.02 M aqueous buffer solutions of phosphoric acid (H3 PO4) and 0.02 M dibasic sodium phosphate (Na2 HPO4) were prepared by dissolving 2.25 gm and 2.84 gm, respectively, into separate one liter portions of deionized water and stirring with a magnetic stir bar until dissolved. To obtain a pH 3 buffer, the two previous buffers were combined, at an approximate ratio of 2:1 (H3 PO4 buffer:Na2 HPO4 buffer). The final volume of the resulting pH 3 buffer was not critical.
To 25 mL volumetric flasks, weights of either HPBCD or SBECD were added to produce final concentrations of each cyclodextrin shown in Table 1. For example, to prepare a 2% w/v solution of HPBCD in pH 3 phosphate buffer, 0.5 gm of HPBCD was accurately added to a 25 mL volumetric flask. […]
To 5 mL glass vials with screw caps, 3 mL of the desired cyclodextrin solution was added. […] The contents were filtered into a clean screw cap vial through a Millex-HV 0.45 μm filter (Millipore, Bedford, Mass.) and the drug concentration determined by an HPLC method. […]
The conditions of data set [2]: pH 3, 30° C., 840 footcandle fluorescent light.
Description: The stability of droloxifene citrate was determined at pH 3 with various concentrations of SBECD and HPBCD. For this protocol, the 0.02 M sodium phosphate buffer of pH 3 and the cyclodextrin solutions were prepared as for the droloxifene solubility determination described previously. 10 mL of each cyclodextrin solution was added to an 18 mL clear glass vial with screw cap which contained a previously weighed amount of droloxifene citrate. The vials were swirled until dissolution of droloxifene citrate was complete. The concentration of droloxifene citrate ranged from 0.05-0.1 mgA/mL. Concentrations of HPBCD included 0.2, 2, 4, 7 and 10% w/v. Concentrations of SBECD included 0.33 and 3.3% w/v. The vials were stored in an 840 footcandle fluorescent light box at 30° C. The solutions were removed briefly from time to time to allow drug concentration determination using the HPLC method described as for the solubility determination.
The nature of data set [3]: Stability of droloxifene out of light / in light-protected solutions. Type of data set: physicochemical. The source says: The results in Table 2 (below) show a stability enhancement of droloxifene with the inclusion of cyclodextrins. The concentration of cyclodextrin that results in the greatest stabilizing effect depends on the efficiency of the formation of the droloxifene-cyclodextrin inclusion complex, that is, the stability constant, as well as the initial concentration of droloxifene present. […] This stability improvement is further useful for preconstituted aqueous solutions which must have a long practical shelf-life, e.g., 2 years, even if packaged in a partially light-protected package. […] While not wishing to be held to any theory, it is believed that incorporation of droloxifene in the cyclodextrin cavity minimizes a cis-trans isomerization reaction, thus reducing the formation of the isomeric decay product and resulting in an overall stability improvement.

As for `CC/C(=C(/c1ccc(OCCN(C)C)cc1)c1cccc(O)c1)c1ccccc1` [droloxifene citrate], the solubility with cyclodextrin entry in data set [1] is listed as “enhancement of droloxifene citrate solubility with cyclodextrin”. Also, the “Decay Rate Constant” value was 0.0094 h⁻¹ in data set [2] (0.2% HPBCD); 0.0090 h⁻¹ in data set [2] (0.33% SBECD); 0.0030 h⁻¹ in data set [2] (2% HPBCD); 0.0070 h⁻¹ in data set [2] (3.3% SBECD); 0.0123 h⁻¹ in data set [2] (no cyclodextrin). In addition, the “Time Required for 1% Decay” value in data set [2] (0.2% HPBCD) was 1.1 h; in data set [2] (0.33% SBECD), 1.1 h; in data set [2] (2% HPBCD), 3.3 h; in data set [2] (3.3% SBECD) it was 1.4 h; in data set [2] (no cyclodextrin) it was 0.8 h.
Turning to `CC/C(=C(/c1ccc(OCCN(C)C)cc1)c1cccc(O)c1)c1ccccc1` [droloxifene, 1-[4'-(2-dimethylaminoethoxy)phenyl]-1-(3'-hydroxyphenyl)-2-phenylbut-1-ene], in data set [3] (light-protected solutions with beta-cyclodextrins present), the “stability in light-protected solutions” value was “an improvement in stability is also observed”. Further, the “stability out of light” value in data set [3] (out of light vs in light) is on record as “significantly more stable out of light”.

These data come from US6077871A, “Droloxifene pharmaceutical compositions” (Pfizer Inc., priority 1998, dated 2000).
